Laboratory results: patent US9073835B2, “N-acylthiourea and N-acylurea inhibitors of the Hedgehog protein signalling pathway” (Centre National De La Recherche Scientifique, priority 2008, dated 2015)

Columns and labels:
[1] = tested on: Hedgehog protein signaling pathway; assay: Inhibition of SAG-induced alkaline phosphatase activity (differentiation) in C3H10T1/2 cells; format: cell-based; conditions: for inhibition at 10 µM: C3H 10T1/2, 10 μM test compound
Description: The effect of compounds with formula (I) as claimed in the invention on inhibition of the Hedgehog protein signaling pathway was determined by analysis of differentiation in the pluripotent fibroblast cell line C3H10T1/2 after activation of this pathway in these cells using a synthetic activator: SAG.
The compounds with formula (I) to be tested were dissolved in dimethylsulfoxide to a concentration of 10 mM, then stored at a temperature of −20° C. until use.
The pluripotent fibroblast cell line C3H10T1/2 (ATCC) was cultivated under the conditions recommended by the ATCC. These cells were activated using 0.1 μM of SAG, employing the methods described by Chen et al., Proc. Natl. Acad. Sci. USA, 2002, 99, 14071 and Frank-Kamenetsky et al., J. Biol., 2002, 1, 10.
Activation with SAG provokes differentiation of the cell line and allows them to express alkaline phosphatase. It is then possible to measure the activity of the Hedgehog protein signaling pathway by measuring the alkaline phosphatase activity.
The C3H10T1/2 cells were plated onto 96-well plates at a density of […], 24 hours before addition of the test compounds in a concentration of 1 nM to 30 μM and in the presence of 0.1 μM of SAG using DMEM supplemented with 10% fetal calf serum as the culture medium. The tests were carried out in quadruplicate. The plates were then incubated for 5-6 days at a temperature of 37° C. in an atmosphere of 5% CO2. The cells were washed in a cold phosphate buffer (“Phosphate Buffer Serum”: PBS) then lysed by sonication at 4° C. in 50 μl of a solution containing 0.9% of NaCl and 0.2% of Triton X-100.
By way of comparison, the activity of a known inhibitor of the Hedgehog protein signaling pathway, CURIS 61 414, as described, for example, by Frank-Kamenetsky M. et al. (J. Biol., 2002, 1, 10), was tested under the same conditions as those used to test the various compounds with formula (I) as claimed in the invention.
The alkaline phosphatase activity measurement in the lysates obtained was then carried out using the method described by Pepinsky et al. (J. Biol. Chem., 1998, 273, 14037). After adding 100 μl of reaction buffer (200 mM Tris-HCl; pH 10.5; 0.4 M of 2-amino-2-methylpropanol and 8 mM of MgCl2) and 50 μl of substrate (4 mM of disodium p-nitrophenyl phosphate), the lysates were incubated at 37° C. for 30-60 min, then the optical density was read at a wavelength of 415 nm.

mouse Smoothened protein = target: T1, mouse Smoothened protein (Mus musculus, UniProt P56726); assay: Competitive Bodipycyclopamine binding on HEK293 cells transfected with mouse Smoothened; conditions: for IC50: 5 nM Bodipycyclopamine, 2 hours at 37° C., HEK293 cells expressing mouse Smoothened; for Bodipycyclopamine binding competition: fluorescence microscopy, FIGS. 2 and 3
T1 construct: expressed in transfected cells; host or cells: HEK293
Description: HEK293 cells were plated in a quantity of 70 000 cells per well onto glass cover slips treated with poly-D-lysine into 24-well plates, and transfected the next day with 0.25 μg of plasmid encoding the mouse Smoothened protein (Masdeu C., Faure H., Coulombe J., Schoenfelder A., Mann A., Brabet I., Pin J-P., Traiffort E. and Ruat M., Identification and characterization of Hedgehog modulator properties after functional coupling of Smoothened to G15, Biochem Biophys Res. Commun., 2006, 349:471-479), using 0.7 μL of fugene6 (Roche Biochemicals). After 48 hours, the culture medium was eliminated, the cells were rinsed once with 1 mL of a phosphate buffer solution, PBS (Phosphate Buffered Saline), then fixed for 20 minutes in the presence of an iced 4% solution of paraformaldehyde (PFA) and 0.12M glucose in a PBS phosphate buffer solution. The cells were then rinsed twice and washed twice for 5 minutes with 1 mL of a phosphate buffer solution and 0.5% of fetal calf serum (PBS-FCS). Next, 1 mL of Bodipycyclopamine (BC) (Chen, J. K., Taipale, J., Cooper, M. K., and Beachy, P. A., Genes Dev., 2002, 16 (21), 2743-2748), diluted to 5 nM in PBS-FCS, in the presence of compounds 31 and 38 of the invention, was applied to the cells for 2 hours at 37° C. The cells were then washed twice for 5 minutes with 1 mL of PBS-FCS and brought into the presence of 1 mL of a PBS 1× phosphate buffer solution. Finally, the cover slips were mounted on a glass slide in the presence of Vectashield containing DAPI (4′,6′-DiAmidino-2-Phenyl Indole) to stain the cell nuclei (Vector).
In FIG. 2, the intensity of the fluorescence was analyzed using Simple PCI 6.2 software (Hamamatsu Corporation), then related to the surface area of the nuclei present in the photograph.

[2] = Mus musculus, percentage of alkaline phosphatase activity induced by SAG
[3] = Mus musculus, C3H 10T1/2, after induction by 0.1 μM SAG

T1 sequence (P56726 33-793): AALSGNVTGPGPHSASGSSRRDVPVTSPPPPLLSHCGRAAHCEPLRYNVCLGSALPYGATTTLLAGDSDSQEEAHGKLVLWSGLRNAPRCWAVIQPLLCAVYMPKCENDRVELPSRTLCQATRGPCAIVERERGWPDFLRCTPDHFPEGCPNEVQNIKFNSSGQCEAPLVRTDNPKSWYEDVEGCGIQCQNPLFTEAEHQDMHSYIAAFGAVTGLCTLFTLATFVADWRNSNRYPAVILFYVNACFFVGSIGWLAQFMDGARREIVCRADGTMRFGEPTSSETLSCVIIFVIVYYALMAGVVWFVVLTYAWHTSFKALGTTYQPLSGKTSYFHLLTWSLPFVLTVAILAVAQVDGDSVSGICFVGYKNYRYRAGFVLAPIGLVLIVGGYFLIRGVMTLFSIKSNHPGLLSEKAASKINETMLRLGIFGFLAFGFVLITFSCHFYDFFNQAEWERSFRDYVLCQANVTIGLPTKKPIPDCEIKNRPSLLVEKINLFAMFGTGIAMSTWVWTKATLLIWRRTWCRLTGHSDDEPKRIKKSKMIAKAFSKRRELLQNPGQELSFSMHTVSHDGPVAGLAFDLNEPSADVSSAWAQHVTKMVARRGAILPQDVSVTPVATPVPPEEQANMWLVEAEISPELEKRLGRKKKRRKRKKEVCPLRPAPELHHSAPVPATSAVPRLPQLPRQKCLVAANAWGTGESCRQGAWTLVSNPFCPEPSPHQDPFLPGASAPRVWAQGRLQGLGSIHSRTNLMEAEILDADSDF

Compound	inhibition at 10 µM [1, 2]	IC50 [1, 3]	other results
COc1cc(C(=O)NC(=O)Nc2cccc(NC(=O)c3ccccc3)c2)cc(OC)c1OC [Compound 31, N-[[[3-(benzoylamino)phenyl]amino]oxomethyl]-3,4,5-methoxy-benzamide]	> 80%	0.01 to 1 µM	IC50 (mouse Smoothened protein): 0.12 µM; Bodipycyclopamine binding competition (mouse Smoothened protein): binding competition was observed
N-[[[3-(benzoylamino)phenyl]amino]thioxomethyl]-3,4,5-methoxy-benzamide [Compound 38]			% INHIBITION of alkaline phosphatase activity ([1]; 10 μM test compound, percentage of alkaline phosphatase activity induced by SAG): A (the letter A corresponds to an inhibition of more than 80%); IC50 ([1]; after induction by 0.1 μM SAG): 0.01 to 1 µM; IC50 (mouse Smoothened protein): 0.5 µM; Bodipycyclopamine binding competition (mouse Smoothened protein): binding competition was observed
COc1ccc(C(=O)Nc2cccc(NC(=S)NC(=O)c3cc(OC)c(OC)c(OC)c3)c2)cc1 [Compound 1, N-[[[3-(4-methoxy-benzoylamino)phenyl]amino]thioxomethyl]-3,4,5-methoxy-benzamide]	> 80%	1 to 3 µM	melting point: 147 °C
COc1cc(C(=O)NC(=S)Nc2ccc(F)c(NC(=O)c3ccccc3)c2)cc(OC)c1OC [Compound 24, N-[[[4-fluoro-3-(benzoylamino)phenyl]amino]thioxomethyl]-3,4,5-methoxy-benzamide]	> 80%		
O=C(NC(=S)Nc1cccc(NC(=O)c2ccccc2)c1)c1ccc2c(c1)OCCO2 [Compound 28, N-[[[3-(benzoylamino)phenyl]amino]thioxomethyl]-3,4-ethylenedioxo-benzamide]	5 to 20%		
COc1cc(C(=O)NC(=S)Nc2cccc(NC(=O)c3cccc4ccccc34)c2)cc(OC)c1OC [Compound 12, N-[[[3-(1-naphthoylamino)phenyl]amino]thioxomethyl]-3,4,5-methoxy-benzamide]	20 to 80%		
COc1cc(C(=O)NC(=S)Nc2cccc(NC(=O)c3cccs3)c2)cc(OC)c1OC [Compound 15, N-[[[3-(2-thiophenoylamino)phenyl]amino]thioxomethyl]-3,4,5-methoxy-benzamide]	20 to 80%		
CCOc1cc(C(=O)NC(=S)Nc2cccc(NC(=O)c3ccccc3)c2)cc(OC)c1OCC [Compound 20, N-[[[3-(benzoylamino)phenyl]amino]thioxomethyl]-3,4-ethoxy-5-methoxy-benzamide]	> 80%	0.01 to 1 µM	
COc1cccc(C(=O)Nc2cccc(NC(=S)NC(=O)c3cc(OC)c(OC)c(OC)c3)c2)c1 [Compound 3, N-[[[3-(3-methoxy-benzoylamino)phenyl]amino]thioxomethyl]-3,4,5-methoxy-benzamide]	> 80%	1 to 3 µM	
COc1cc(C(=O)NC(=S)Nc2cccc(-c3cn4ccccc4n3)c2)cc(OC)c1OC [Compound 55, N-(3-(imidazo[1,2-a]pyridin-2-yl)phenylcarbamothioyl)-3,4,5-trimethoxybenzamide]	> 80%	0.01 to 1 µM	
COc1cc(C(=O)NC(=S)Nc2ccc(Cl)c(C(=O)Nc3ccc(N(C)C)cc3)c2)cc(OC)c1OC [Compound 39]	> 80%	1 to 3 µM	
COc1ccc(C(=O)NC(=O)Nc2cccc(NC(=O)c3ccccc3)c2)cc1 [Compound 49, N-[[[-3-(benzoylamino)phenyl]amino]oxomethyl]-4-methoxy-benzamide]	20 to 80%		
CCOc1c(OC)cc(C(=O)NC(=S)Nc2cccc(NC(=O)c3ccccc3)c2)cc1OC [Compound 19, N-[[[3-(benzoylamino)phenyl]amino]thioxomethyl]-3,5-methoxy-4-ethoxy-benzamide]	> 80%	0.01 to 1 µM	
COc1cc(C(=O)NC(=S)Nc2cccc(NC(=O)c3ccccc3Cl)c2)cc(OC)c1OC [Compound 2, N-[[[3-(2-chloro-benzoylamino)phenyl]amino]thioxomethyl]-3,4,5-methoxy-benzamide]	> 80%	1 to 3 µM	
CC1=C2C[C@H]3[C@@H](CC=C4C[C@@H](O)CC[C@@]43C)[C@@H]2CC[C@]12O[C@@H]1C[C@H](C)CN[C@H]1[C@H]2C [Cyclopamine, reference compound]			Bodipycyclopamine binding competition (mouse Smoothened protein): binding competition was observed
COc1cc(C(=O)NC(=O)Nc2cccc(NC(=O)c3ccc(-c4ccccc4)cc3)c2C)cc(OC)c1OC [Compound 45]	> 80%	0.01 to 1 µM	
COc1cc(C(=O)NC(=O)Nc2cccc(-c3cc4ccccc4[nH]3)c2)cc(OC)c1OC [Compound 53, N-(3-(1H-indol-2-yl)phenylcarbamoyl)-3,4,5-trimethoxybenzamide]	> 80%	0.01 to 1 µM	
COc1cc(C(=O)NC(=S)Nc2cccc(NC(=O)c3ccccc3)c2)cc2c1OCO2 [Compound 21, N-[[[3-(benzoylamino)phenyl]amino]thioxomethyl]-3,4-methylenedioxy-5-methoxy-benzamide]	> 80%	1 to 3 µM	
COc1cc(C(=O)NC(=O)Nc2cccc(NC(=O)c3ccc4ccccc4c3)c2)cc(OC)c1OC [Compound 16, N-[[[3-(2-naphthoylamino)phenyl]amino]oxomethyl]-3,4,5-methoxy-benzamide]	5 to 20%		
COc1ccc(NC(=S)NC(=O)c2cc(OC)c(OC)c(OC)c2)cc1NC(=O)c1ccccc1 [Compound 26, N-[[[4-methoxy-3-(benzoylamino)phenyl]amino]thioxomethyl]-3,4,5-methoxy-benzamide]	20 to 80%		
COc1ccc(NC(=O)c2cc(NC(=S)NC(=O)c3cc(OC)c(OC)c(OC)c3)ccc2Cl)cc1 [Compound 40]	20 to 80%		
COc1cc(C(=O)NC(=O)Nc2cccc(NC(=O)c3ccc(Cl)cc3)c2)cc(OC)c1OC [Compound 47, N-[[[-3-(4-chloro-benzoylamino)phenyl]amino]oxomethyl]-3,4,5-methoxy-benzamide]	> 80%		
COc1cc(C(=O)NC(=S)Nc2ccc(Cl)c(NC(=O)c3ccccc3)c2)cc(OC)c1OC [Compound 34, N-[[[4-chloro-3-(benzoylamino)phenyl]amino]thioxomethyl]-3,4,5-methoxy-benzamide]	> 80%	0.01 to 1 µM	
COc1cc(C(=O)NC(=S)Nc2cccc(NC(=O)c3ccc(-c4ccccc4)cc3)c2C)cc(OC)c1OC [Compound 46]	5 to 20%		
COc1cc(C(=O)NC(=O)Nc2ccc(Cl)c(NC(=O)c3ccccc3)c2)cc(OC)c1OC [Compound 33, N-[[[4-chloro-3-(benzoylamino)phenyl]amino]oxomethyl]-3,4,5-methoxy-benzamide]	20 to 80%		
